Patent US12655116B2, “Substituted isophthalic acid diamides” (Bayer Aktiengesellschaft, priority 2020, dated 2026)

Key:
SETVI [1] = assay: Post-emergence herbicidal action against SETVI; type: in vivo, Setaria viridis
Outline: (§1)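 Percent herbicidal action is rated by eye about 3 weeks after treatment against untreated controls, where 100% means dead plants and 0% means like controls. Plants in sandy loam are sprayed on green parts at the one-leaf stage with aqueous WP or EC preparations at 600 to 800 l/ha plus 0.2% wetting agent.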

MATIN [2] = assay: Pre-emergence herbicidal action against MATIN; type: in vivo, Matricaria inodora
Outline: (§2)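 Seeds sown in sandy loam, soil-covered; compound sprayed on soil surface pre-emergence. Application: WP/EC, 600–800 l/ha, 0.2% wetting agent. Readout: visual % damage at 3 weeks.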

POLCO = assay: Pre-emergence herbicidal action against POLCO; type: in vivo, Polygonum convolvulus
Outline: as §2

VERPE [3] = assay: Post-emergence herbicidal action against VERPE; type: in vivo, Veronica persica
Outline: as §1

DIGSA [4] = assay: Pre-emergence herbicidal action against DIGSA; type: in vivo, Digitaria sanguinalis
Outline: as §2

ECHCG [5] = assay: Pre-emergence herbicidal action against ECHCG; type: in vivo, Echinochloa crus-galli; details: 80 g/ha
Outline: as §2

VERPE [6] = assay: Pre-emergence herbicidal action against VERPE; type: in vivo, Veronica persica
Outline: as §2

ALOMY [7] = assay: Pre-emergence herbicidal action against ALOMY; type: in vivo, Alopecurus myosuroides; details: 80 g/ha, pre-emergence, scored visually after 3 weeks vs untreated controls (100% = plants have died, 0% = like control plants)
Outline: as §2

VIOTR [8] = assay: Post-emergence herbicidal action against VIOTR; type: in vivo, Viola tricolor
Outline: as §1

DIGSA [9] = assay: Post-emergence herbicidal action against DIGSA; type: in vivo, Digitaria sanguinalis; details: for Post-emergence action against DIGSA in %: 5 g/ha; for Post-emergence action against DIGSA: 20 g/ha
Outline: as §1

PHBPU [10] = assay: Pre-emergence herbicidal action against PHBPU; type: in vivo, Pharbitis purpurea; details: dosage 80 g/ha
Outline: as §2

AMARE [11] = assay: Post-emergence herbicidal action against AMARE; type: in vivo, Amaranthus retroflexus; details: 20 g/ha, visual assessment about 3 weeks after treatment, 100% = plants have died, 0% = like control plants
Outline: as §1

PHBPU [12] = assay: Post-emergence herbicidal action against PHBPU; type: in vivo, Pharbitis purpurea
Outline: as §1

ALOMY [13] = assay: Post-emergence herbicidal action against ALOMY; type: in vivo, Alopecurus myosuroides; details: dosage 20 g/ha, visual assessment about 3 weeks after treatment vs untreated controls
Outline: as §1

MATIN [14] = assay: Post-emergence herbicidal action against MATIN; type: in vivo, Matricaria inodora
Outline: as §1

VIOTR [15] = assay: Pre-emergence herbicidal action against VIOTR; type: in vivo, Viola tricolor
Outline: as §2

ABUTH [16] = assay: Post-emergence herbicidal action against ABUTH; type: in vivo, Abutilon theophrasti; details: visual assessment about 3 weeks after treatment vs untreated controls
Outline: as §1

AMARE [17] = assay: Pre-emergence herbicidal action against AMARE; type: in vivo, Amaranthus retroflexus
Outline: as §2

SETVI [18] = assay: Pre-emergence herbicidal action against SETVI; type: in vivo, Setaria viridis
Outline: as §2

ECHCG [19] = assay: Post-emergence herbicidal action against ECHCG; type: in vivo, Echinochloa crus-galli
Outline: as §1

ABUTH [20] = assay: Pre-emergence herbicidal action against ABUTH; type: in vivo, Abutilon theophrasti; details: for Pre-emergence action against ABUTH (herbicidal activity): 80 g/ha, scored visually after 3 weeks vs untreated controls (100% = plants have died, 0% = like control plants); for Pre-emergence action against ABUTH (herbicidal activity in percent): dosage 20 g/ha, scored visually after 3 weeks vs untreated controls, 100% = plants have died, 0% = like control plants
Outline: as §2

AVEFA = assay: Pre-emergence herbicidal action against AVEFA; type: in vivo, Avena fatua; details: 80 g/ha, pre-emergence
Outline: as §2

[21] = 20 g/ha, scored visually after 3 weeks vs untreated controls, 100% = plants have died, 0% = like control plants
[22] = 80 g/ha, scored visually after 3 weeks vs untreated controls (100% = plants have died, 0% = like control plants)

Structure (SMILES)	Pre-emergence action against MATIN in % (MATIN [2]; dosage 20 g/ha) [%]	Pre-emergence action against MATIN in % (MATIN [2]; dosage 80 g/ha) [%]	Pre-emergence action against POLCO in % (POLCO; dosage 80 g/ha) [%]	Post-emergence action against VERPE in % (VERPE [3]; 20 g/ha) [%]	Pre-emergence action against DIGSA in % (DIGSA [4]; dosage 20 g/ha) [%]	Pre-emergence action against DIGSA in % (DIGSA [4]; dosage 80 g/ha) [%]	Pre-emergence action against ECHCG in % (ECHCG [5]) [%]	Pre-emergence action against VERPE in % (VERPE [6]; dosage 80 g/ha) [%]	Pre-emergence action against ALOMY (herbicidal activity) (ALOMY [7]) [%]	Post-emergence action against VIOTR in % (VIOTR [8]; 20 g/ha) [%]	Post-emergence action against DIGSA (DIGSA [9]) [%]	Pre-emergence action against PHBPU in % (PHBPU [10]) [%]	Post-emergence action against ALOMY in % (ALOMY [13]) [%]	Pre-emergence action against VIOTR in % (VIOTR [15]; dosage 80 g/ha) [%]	Pre-emergence action against AMARE in % (AMARE [17]; [21]) [%]	Pre-emergence action against AMARE in % (AMARE [17]; [22]) [%]	Pre-emergence action against SETVI in % (SETVI [18]; dosage 80 g/ha) [%]	Post-emergence action against ECHCG in % (ECHCG [19]; dosage 20 g/ha) [%]	Pre-emergence action against ABUTH (herbicidal activity) (ABUTH [20]) [%]	Pre-emergence action against ABUTH (herbicidal activity in percent) (ABUTH [20]) [%]	also measured
CCn1nnnc1NC(=O)c1ccc(C(F)(F)F)c(C(=O)NC)c1OC [Example 2-56]	90	100	90	80	100	100	90	100	90	100	100	80	80	90	100	100	100	100	100	100	Post-emergence action against SETVI in % (SETVI [1]; dosage 5 g/ha): 80%; Post-emergence action against SETVI in % (SETVI [1]; dosage 20 g/ha): 100%; Pre-emergence action against VERPE in % (VERPE [6]; dosage 20 g/ha): 80%; Post-emergence action against VIOTR in % (VIOTR [8]; 5 g/ha): 80%; Post-emergence action against DIGSA in % (DIGSA [9]): 90%; Post-emergence action at 20 g/ha against AMARE in % (AMARE [11]): 100%; Post-emergence action against PHBPU in % (PHBPU [12]; dosage 5 g/ha): 80%; Post-emergence action against PHBPU in % (PHBPU [12]; dosage 20 g/ha): 90%; Post-emergence action against MATIN in % (MATIN [14]; dosage 5 g/ha): 80%; Post-emergence action against MATIN in % (MATIN [14]; dosage 20 g/ha): 90%; Pre-emergence action against VIOTR in % (VIOTR [15]; dosage 20 g/ha): 80%; Post-emergence action against ABUTH in % (ABUTH [16]; dosage 5 g/ha): 100%; Post-emergence action against ABUTH in % (ABUTH [16]; dosage 20 g/ha): 100%; Pre-emergence action against SETVI in % (SETVI [18]; dosage 20 g/ha): 100%
CCn1nnnc1NC(=O)c1ccc(Br)c(C(=O)NC(C)C2CC2)c1Cl (stereo not shown) [Example 2-183]	90	100	90	90	90	100	90	90	90	100	–	90	80	100	90	100	100	90	100	100	Pre-emergence action against POLCO in % (POLCO; dosage 20 g/ha): 90%; Pre-emergence action against AVEFA in % (AVEFA): 80%; Post-emergence action against VIOTR in % (VIOTR [8]; 5 g/ha): 100%; Post-emergence action against PHBPU in % (PHBPU [12]; dosage 20 g/ha): 80%; Post-emergence action against MATIN in % (MATIN [14]; dosage 5 g/ha): 80%; Post-emergence action against MATIN in % (MATIN [14]; dosage 20 g/ha): 90%
CCn1nnnc1NC(=O)c1ccc(C(F)(F)F)c(C(=O)NCC2CC2)c1C1CC1 [Example 2-289]	90	100	80	100	100	100	100	100	90	90	100	80	90	100	100	100	90	90	100	100	Post-emergence action against SETVI in % (SETVI [1]; dosage 20 g/ha): 80%; Post-emergence action against VERPE in % (VERPE [3]; 5 g/ha): 80%; Post-emergence action against DIGSA in % (DIGSA [9]): 90%; Post-emergence action at 20 g/ha against AMARE in % (AMARE [11]): 100%; Post-emergence action against PHBPU in % (PHBPU [12]; dosage 20 g/ha): 90%; Post-emergence action against MATIN in % (MATIN [14]; dosage 5 g/ha): 80%; Post-emergence action against MATIN in % (MATIN [14]; dosage 20 g/ha): 90%; Pre-emergence action against VIOTR in % (VIOTR [15]; dosage 20 g/ha): 100%; Post-emergence action against ABUTH in % (ABUTH [16]; dosage 20 g/ha): 80%; Post-emergence action against ECHCG in % (ECHCG [19]; dosage 5 g/ha): 80%
Cc1nnc(NC(=O)c2ccc(C(F)F)c(C(=O)NC(C)C3CC3)c2C)o1 (stereo not shown) [Example 6-258]	–	90	80	80	100	100	100	100	90	–	90	90	80	80	100	100	80	90	100	100	Pre-emergence action against VERPE in % (VERPE [6]; dosage 20 g/ha): 90%; Post-emergence action at 20 g/ha against AMARE in % (AMARE [11]): 90%; Post-emergence action against ABUTH in % (ABUTH [16]; dosage 5 g/ha): 80%; Post-emergence action against ABUTH in % (ABUTH [16]; dosage 20 g/ha): 90%; Post-emergence action against ECHCG in % (ECHCG [19]; dosage 5 g/ha): 80%
